The target in assay [1] is AP2-associated protein kinase 1 (Homo sapiens) (UniProt Q2M2I8). The experiment in a line: Inhibition of T7 bacteriophage fused human AAK1 at 10 uM by KINOMEscan analysis relative to control.
Assay [2] addresses Calcium/calmodulin-dependent protein kinase type II subunit gamma (Homo sapiens) (UniProt Q13555). The experiment in a line: Inhibition of T7 bacteriophage fused human CAMK2G at 10 uM by KINOMEscan analysis relative to control.
For assay [3], the target named is Casein kinase I isoform alpha (Homo sapiens) (UniProt P48729). The experiment in a line: Inhibition of T7 bacteriophage fused human CSNK1A1 at 10 uM by KINOMEscan analysis relative to control.
Chain of Casein kinase I isoform alpha (Homo sapiens) (P48729 2-337 limits assumed): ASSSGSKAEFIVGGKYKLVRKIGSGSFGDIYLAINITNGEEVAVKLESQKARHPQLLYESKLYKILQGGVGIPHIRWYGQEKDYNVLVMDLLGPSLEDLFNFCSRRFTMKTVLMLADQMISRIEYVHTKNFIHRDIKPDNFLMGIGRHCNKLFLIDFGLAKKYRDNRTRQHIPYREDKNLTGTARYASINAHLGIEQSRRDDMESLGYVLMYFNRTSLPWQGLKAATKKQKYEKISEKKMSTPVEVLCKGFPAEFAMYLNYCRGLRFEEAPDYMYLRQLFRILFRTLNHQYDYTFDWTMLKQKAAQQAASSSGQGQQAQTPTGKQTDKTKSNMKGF
The target of assay [4] is Homeodomain-interacting protein kinase 3 (Homo sapiens) (UniProt Q9H422). The experiment in a line: Inhibition of T7 bacteriophage fused human HIPK3 at 10 uM by KINOMEscan analysis relative to control; values are per cent of control.
Assay [5] concerns the target cAMP-dependent protein kinase catalytic subunit beta (Homo sapiens) (UniProt P22694). The assay is described as follows: Inhibition of T7 bacteriophage fused human PKAC-beta at 10 uM by KINOMEscan analysis relative to control.
The subject of assay [6] is Proto-oncogene tyrosine-protein kinase receptor Ret (Homo sapiens), P07949 [V804L]. The experiment in a line: Inhibition of T7 bacteriophage fused human RET V804L mutant at 10 uM by KINOMEscan analysis relative to control.
The target in assay [7] is Interleukin-1 receptor-associated kinase 3 (Homo sapiens) (UniProt Q9Y616). The experiment in a line: Inhibition of T7 bacteriophage fused human IRAK3 at 10 uM by KINOMEscan analysis relative to control.
Assay [8] addresses Serine/threonine-protein kinase 24 (Homo sapiens) (UniProt Q9Y6E0). The assay is described as follows: Inhibition of T7 bacteriophage fused human MST3 at 10 uM by KINOMEscan analysis relative to control; values are per cent of control.
Assay [9] concerns the target Serine/threonine-protein kinase NLK (Homo sapiens) (UniProt Q9UBE8). The experiment in a line: Inhibition of T7 bacteriophage fused human NLK at 10 uM by KINOMEscan analysis relative to control; values are per cent of control.
Assay [10] deals with Hormonally up-regulated neu tumor-associated kinase (Homo sapiens) (UniProt P57058). The assay is described as follows: Inhibition of T7 bacteriophage fused human HUNK at 10 uM by KINOMEscan analysis relative to control.
Chain of Hormonally up-regulated neu tumor-associated kinase (Homo sapiens) (P57058 whole entry, the tested form may be a part): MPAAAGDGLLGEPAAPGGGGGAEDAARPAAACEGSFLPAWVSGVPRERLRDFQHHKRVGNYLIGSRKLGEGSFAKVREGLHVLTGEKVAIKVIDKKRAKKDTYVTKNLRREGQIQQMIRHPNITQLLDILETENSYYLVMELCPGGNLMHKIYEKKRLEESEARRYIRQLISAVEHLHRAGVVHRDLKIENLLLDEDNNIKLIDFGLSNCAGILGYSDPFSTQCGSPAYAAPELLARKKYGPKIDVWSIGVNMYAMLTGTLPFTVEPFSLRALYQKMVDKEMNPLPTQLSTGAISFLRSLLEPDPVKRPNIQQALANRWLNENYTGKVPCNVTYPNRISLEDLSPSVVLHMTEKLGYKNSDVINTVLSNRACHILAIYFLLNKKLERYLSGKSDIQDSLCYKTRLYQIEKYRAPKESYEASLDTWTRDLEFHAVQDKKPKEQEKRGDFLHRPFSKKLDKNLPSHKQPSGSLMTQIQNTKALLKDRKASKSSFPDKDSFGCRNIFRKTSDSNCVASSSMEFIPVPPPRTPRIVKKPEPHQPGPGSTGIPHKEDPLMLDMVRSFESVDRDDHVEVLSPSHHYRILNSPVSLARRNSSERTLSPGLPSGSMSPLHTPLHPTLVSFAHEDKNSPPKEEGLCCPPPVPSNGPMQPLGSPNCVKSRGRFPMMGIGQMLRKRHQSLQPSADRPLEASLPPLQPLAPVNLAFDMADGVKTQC
Assay [11] addresses Ephrin type-B receptor 3 (Homo sapiens) (UniProt P54753). The experiment in a line: Inhibition of T7 bacteriophage fused human EPHB3 at 10 uM by KINOMEscan analysis relative to control.
For assay [12], the system named is Epidermal growth factor receptor (Homo sapiens), P00533 [G719C]. The assay is described as follows: Inhibition of T7 bacteriophage fused human EGFR G719C mutant at 10 uM by KINOMEscan analysis relative to control.
The target in assay [13] is Serine/threonine-protein kinase PLK2 (Homo sapiens) (UniProt Q9NYY3). The assay is described as follows: Inhibition of T7 bacteriophage fused human PLK2 at 10 uM by KINOMEscan analysis relative to control.
Chain of Serine/threonine-protein kinase PLK2 (Homo sapiens) (Q9NYY3 whole entry, looked up, the tested form may be a part): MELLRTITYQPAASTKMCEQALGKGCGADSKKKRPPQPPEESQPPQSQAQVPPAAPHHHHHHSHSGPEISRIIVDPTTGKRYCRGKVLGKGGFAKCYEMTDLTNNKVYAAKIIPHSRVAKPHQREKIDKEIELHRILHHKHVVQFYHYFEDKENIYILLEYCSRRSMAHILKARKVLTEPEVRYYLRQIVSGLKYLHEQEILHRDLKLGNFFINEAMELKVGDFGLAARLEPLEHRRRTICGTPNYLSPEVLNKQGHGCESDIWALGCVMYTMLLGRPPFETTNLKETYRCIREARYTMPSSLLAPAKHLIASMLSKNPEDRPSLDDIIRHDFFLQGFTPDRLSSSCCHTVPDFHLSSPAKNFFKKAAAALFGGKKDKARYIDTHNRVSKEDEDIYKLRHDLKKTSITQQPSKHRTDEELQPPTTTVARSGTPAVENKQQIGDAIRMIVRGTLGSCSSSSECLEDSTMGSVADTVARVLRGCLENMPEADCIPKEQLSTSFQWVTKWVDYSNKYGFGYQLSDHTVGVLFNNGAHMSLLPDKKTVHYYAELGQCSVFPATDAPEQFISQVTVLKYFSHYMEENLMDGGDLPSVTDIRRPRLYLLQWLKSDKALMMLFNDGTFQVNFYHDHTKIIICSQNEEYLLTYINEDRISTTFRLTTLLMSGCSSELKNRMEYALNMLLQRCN
Assay [14] addresses Serine/threonine-protein kinase pim-1 (Homo sapiens) (UniProt P11309). The experiment in a line: Inhibition of T7 bacteriophage fused human PIM1 at 10 uM by KINOMEscan analysis relative to control.
For assay [15], the target named is Serine/threonine-protein kinase PAK 1 (Homo sapiens) (UniProt Q13153). The experiment in a line: Inhibition of T7 bacteriophage fused human PAK1 at 10 uM by KINOMEscan analysis relative to control.
Assay [16] addresses Myosin light chain kinase family member 4 (Homo sapiens) (UniProt Q86YV6). The experiment in a line: Inhibition of T7 bacteriophage fused human MYLK4 at 10 uM by KINOMEscan analysis relative to control; values are per cent of control.
Assay [17] addresses Myosin light chain kinase 2, skeletal/cardiac muscle (Homo sapiens) (UniProt Q9H1R3). The experiment in a line: Inhibition of T7 bacteriophage fused human MYLK2 at 10 uM by KINOMEscan analysis relative to control; values are per cent of control.
Assay [18] concerns Epidermal growth factor receptor (Homo sapiens), P00533 [L858R,T790M]. The assay is described as follows: Inhibition of T7 bacteriophage fused human EGFR L858R/T790M mutant at 10 uM by KINOMEscan analysis relative to control.
Assay [19] has as its target Mitogen-activated protein kinase kinase kinase kinase 1 (Homo sapiens) (UniProt Q92918). The experiment in a line: Inhibition of T7 bacteriophage fused human HPK1 at 10 uM by KINOMEscan analysis relative to control.
Assay [20] deals with Interferon-induced, double-stranded RNA-activated protein kinase (Homo sapiens) (UniProt P19525). The assay is described as follows: Inhibition of T7 bacteriophage fused human PRKR at 10 uM by KINOMEscan analysis relative to control.
The target of assay [21] is Aurora kinase C (Homo sapiens) (UniProt Q9UQB9). The experiment in a line: Inhibition of T7 bacteriophage fused human AURKC at 10 uM by KINOMEscan analysis relative to control.
Assay [22] concerns Phosphatidylinositol 4,5-bisphosphate 3-kinase catalytic subunit alpha isoform (Homo sapiens), P42336 [E545A]. The assay is described as follows: Inhibition of T7 bacteriophage fused human PIK3CA E545A mutant at 10 uM by KINOMEscan analysis relative to control.
For assay [23], the target named is Discoidin domain-containing receptor 2 (Homo sapiens) (UniProt Q16832). The assay is described as follows: Inhibition of T7 bacteriophage fused human DDR2 at 10 uM by KINOMEscan analysis relative to control.
Chain of Discoidin domain-containing receptor 2 (Homo sapiens) (Q16832 whole entry, the tested form may be a part): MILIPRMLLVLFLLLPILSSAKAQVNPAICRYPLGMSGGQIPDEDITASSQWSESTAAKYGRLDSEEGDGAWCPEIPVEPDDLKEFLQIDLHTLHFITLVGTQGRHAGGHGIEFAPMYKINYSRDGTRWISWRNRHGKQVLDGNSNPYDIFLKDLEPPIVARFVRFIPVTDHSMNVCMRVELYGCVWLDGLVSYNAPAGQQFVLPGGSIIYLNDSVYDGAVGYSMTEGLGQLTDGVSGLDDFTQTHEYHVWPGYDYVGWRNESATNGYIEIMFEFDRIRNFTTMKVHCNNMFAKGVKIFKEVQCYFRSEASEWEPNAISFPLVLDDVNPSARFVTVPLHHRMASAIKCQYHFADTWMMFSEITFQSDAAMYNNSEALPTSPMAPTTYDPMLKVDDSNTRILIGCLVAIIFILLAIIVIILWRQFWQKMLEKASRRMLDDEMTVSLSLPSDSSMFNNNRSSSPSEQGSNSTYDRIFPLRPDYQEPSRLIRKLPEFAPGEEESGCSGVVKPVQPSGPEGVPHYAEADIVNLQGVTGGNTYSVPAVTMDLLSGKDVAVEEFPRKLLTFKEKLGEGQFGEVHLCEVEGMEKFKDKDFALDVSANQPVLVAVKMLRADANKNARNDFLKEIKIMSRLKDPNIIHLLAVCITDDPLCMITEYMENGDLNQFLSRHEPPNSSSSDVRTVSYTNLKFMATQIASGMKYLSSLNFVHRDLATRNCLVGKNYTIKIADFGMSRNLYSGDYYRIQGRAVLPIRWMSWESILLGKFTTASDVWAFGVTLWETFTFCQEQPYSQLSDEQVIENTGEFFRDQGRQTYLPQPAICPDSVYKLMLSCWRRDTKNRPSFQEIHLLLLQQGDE
The target of assay [24] is Dual specificity mitogen-activated protein kinase kinase 3 (Homo sapiens) (UniProt P46734). The assay is described as follows: Inhibition of T7 bacteriophage fused human MEK3 at 10 uM by KINOMEscan analysis relative to control; values are per cent of control.
The target of assay [25] is Serine/threonine-protein kinase D3 (Homo sapiens) (UniProt O94806). The experiment in a line: Inhibition of T7 bacteriophage fused human PRKD3 at 10 uM by KINOMEscan analysis relative to control.
The target of assay [26] is Serine/threonine-protein kinase Nek11 (Homo sapiens) (UniProt Q8NG66). The experiment in a line: Inhibition of T7 bacteriophage fused human NEK11 at 10 uM by KINOMEscan analysis relative to control.
Assay [27] deals with Ephrin type-A receptor 7 (Homo sapiens) (UniProt Q15375). The assay is described as follows: Inhibition of T7 bacteriophage fused human EPHA7 at 10 uM by KINOMEscan analysis relative to control; values are per cent of control.
In assay [28] the target is Serine/threonine-protein kinase Nek3 (Homo sapiens) (UniProt P51956). The assay is described as follows: Inhibition of T7 bacteriophage fused human NEK3 at 10 uM by KINOMEscan analysis relative to control.
The subject of assay [29] is Epidermal growth factor receptor (Homo sapiens), P00533 [UNDEFINED MUTATION]. The assay is described as follows: Inhibition of T7 bacteriophage fused human EGFR L747/T751del/Sins mutant at 10 uM by KINOMEscan analysis relative to control.
Assay [30] addresses Leucine-rich repeat serine/threonine-protein kinase 2 (Homo sapiens) (UniProt Q5S007). The experiment in a line: Inhibition of wildtype GFP-tagged LRRK2 phosphorylation at Ser910 residue (unknown origin) transfected in HEK293 cells upto 3 uM incubated for 90 mins by immunoblot analysis. In kind it is cell-based. A general note: In western blotting, separated proteins are transferred to a membrane and probed.

Active and inactive are the calls of the source. The calls are words filed in the database; no cut-off is given here.

Chain of Myosin light chain kinase family member 4 (Homo sapiens) (Q86YV6 whole entry, the tested form may be a part): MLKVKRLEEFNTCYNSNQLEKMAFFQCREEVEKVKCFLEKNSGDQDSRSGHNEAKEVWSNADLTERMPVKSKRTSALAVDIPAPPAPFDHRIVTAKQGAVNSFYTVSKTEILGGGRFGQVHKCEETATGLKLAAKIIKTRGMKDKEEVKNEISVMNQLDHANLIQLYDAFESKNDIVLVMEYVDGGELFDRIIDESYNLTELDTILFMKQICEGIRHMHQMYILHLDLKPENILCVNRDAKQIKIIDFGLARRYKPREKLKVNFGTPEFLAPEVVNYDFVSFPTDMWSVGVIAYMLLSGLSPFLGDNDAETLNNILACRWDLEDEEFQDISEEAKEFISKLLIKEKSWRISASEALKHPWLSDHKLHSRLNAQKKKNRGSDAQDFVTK
Chain of Mitogen-activated protein kinase kinase kinase kinase 1 (Homo sapiens) (Q92918 whole entry, looked up, the tested form may be a part): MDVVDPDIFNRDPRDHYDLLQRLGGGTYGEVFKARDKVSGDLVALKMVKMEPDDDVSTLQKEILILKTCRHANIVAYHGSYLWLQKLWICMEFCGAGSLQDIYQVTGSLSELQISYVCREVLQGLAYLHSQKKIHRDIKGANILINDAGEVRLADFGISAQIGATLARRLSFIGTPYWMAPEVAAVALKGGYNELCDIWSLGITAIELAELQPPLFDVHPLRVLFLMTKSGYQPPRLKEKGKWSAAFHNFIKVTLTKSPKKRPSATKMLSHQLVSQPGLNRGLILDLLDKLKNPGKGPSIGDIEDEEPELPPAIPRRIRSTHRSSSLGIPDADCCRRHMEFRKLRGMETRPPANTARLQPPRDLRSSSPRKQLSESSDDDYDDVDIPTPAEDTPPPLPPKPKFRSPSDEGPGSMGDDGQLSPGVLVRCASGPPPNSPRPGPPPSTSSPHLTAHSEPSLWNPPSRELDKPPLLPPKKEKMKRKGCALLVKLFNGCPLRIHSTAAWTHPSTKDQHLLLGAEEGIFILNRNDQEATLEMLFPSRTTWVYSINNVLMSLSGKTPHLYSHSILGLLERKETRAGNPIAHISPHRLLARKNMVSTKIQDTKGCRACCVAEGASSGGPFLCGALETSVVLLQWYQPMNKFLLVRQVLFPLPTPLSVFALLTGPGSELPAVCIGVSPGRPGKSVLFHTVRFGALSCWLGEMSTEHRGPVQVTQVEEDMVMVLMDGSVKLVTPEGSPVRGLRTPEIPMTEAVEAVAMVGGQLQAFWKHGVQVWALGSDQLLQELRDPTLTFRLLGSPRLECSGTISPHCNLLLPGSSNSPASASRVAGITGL
Chain of Epidermal growth factor receptor (Homo sapiens), P00533 [UNDEFINED MUTATION] (P00533 whole entry, looked up, stated change not applied, the tested form may be a part): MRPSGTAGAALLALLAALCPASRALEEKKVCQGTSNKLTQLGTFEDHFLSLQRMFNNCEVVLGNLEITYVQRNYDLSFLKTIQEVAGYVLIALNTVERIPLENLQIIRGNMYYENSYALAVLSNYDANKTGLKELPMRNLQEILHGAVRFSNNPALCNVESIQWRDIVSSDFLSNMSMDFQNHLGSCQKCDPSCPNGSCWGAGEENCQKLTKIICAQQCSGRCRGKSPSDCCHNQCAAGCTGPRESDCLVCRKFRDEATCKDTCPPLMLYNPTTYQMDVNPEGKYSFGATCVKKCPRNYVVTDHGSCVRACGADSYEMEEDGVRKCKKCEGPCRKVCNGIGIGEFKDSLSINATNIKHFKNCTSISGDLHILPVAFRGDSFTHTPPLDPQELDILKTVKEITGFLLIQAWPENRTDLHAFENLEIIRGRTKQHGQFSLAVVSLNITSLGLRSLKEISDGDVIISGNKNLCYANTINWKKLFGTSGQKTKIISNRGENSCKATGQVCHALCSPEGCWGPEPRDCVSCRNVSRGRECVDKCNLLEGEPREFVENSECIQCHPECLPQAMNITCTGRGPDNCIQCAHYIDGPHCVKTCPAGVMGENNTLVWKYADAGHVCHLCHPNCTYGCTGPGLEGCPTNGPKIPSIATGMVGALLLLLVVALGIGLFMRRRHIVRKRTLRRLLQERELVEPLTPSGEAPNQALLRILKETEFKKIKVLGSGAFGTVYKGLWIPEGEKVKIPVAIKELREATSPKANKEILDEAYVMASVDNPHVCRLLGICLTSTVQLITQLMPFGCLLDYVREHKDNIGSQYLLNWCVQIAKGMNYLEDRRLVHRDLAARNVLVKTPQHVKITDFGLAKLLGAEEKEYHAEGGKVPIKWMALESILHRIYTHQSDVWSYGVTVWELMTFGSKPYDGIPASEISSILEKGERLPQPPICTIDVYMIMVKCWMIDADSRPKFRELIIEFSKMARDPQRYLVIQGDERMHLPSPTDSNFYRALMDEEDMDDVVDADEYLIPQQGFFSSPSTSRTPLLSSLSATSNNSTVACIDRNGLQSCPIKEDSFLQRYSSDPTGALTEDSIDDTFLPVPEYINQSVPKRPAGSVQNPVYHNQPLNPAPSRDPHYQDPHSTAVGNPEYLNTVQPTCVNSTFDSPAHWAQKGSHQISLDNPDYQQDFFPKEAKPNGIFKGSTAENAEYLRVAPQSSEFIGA

A word on the inhibition: it is the change of the read-out against control, counted positive when it falls. As for `COc1cc(N2CCC(N3CCN(C)CC3)CC2)ccc1Nc1ncc2c(n1)N(C)c1ccccc1C(=O)N2C`, the inhibition in [1] stood at 84%; in assay [2], 47%; in [3] it was 100%; in assay [5], 100%; in assay [6], 89%; in assay [7], 100%. The inhibition in assay [10] is 100%; in assay [11] it was 100%; in assay [12], 100%; in assay [13], 100%; in [14], 100%; in assay [15] it was 95%. Moreover, the inhibition in assay [18] was determined as 84%; in [19], 100%; in [20] it was 84%; in [21], 50%; in assay [22] it was 98%; in assay [23] it was 100%. Besides, the inhibition in assay [25] came to 42%; in assay [26], 100%; in assay [28], 100%; in assay [29], 100%. For the same molecule, the residual activity in assay [4] worked out at 89%; in assay [8], 87%; in assay [9], 50%; in assay [16], 80%; in assay [17], 98%; in [24], 75%. Moreover, in [27], the residual activity worked out at 97%.

Take `CCOc1cc(C(=O)N2CCC(N3CCN(C)CC3)CC2)ccc1Nc1ncc2c(n1)N(C1CCCC1)c1ccccc1C(=O)N2C`: the inhibition entry in [30] is “inactive”.

The values are drawn from ChEMBL document CHEMBL5678810.
